Laboratory results taken from patent US7115750B1, “Melanin concentrating hormone antagonist” (Takeda Pharmaceutical Company Limited, priority 1999, dated 2006).

Q: With `COc1ccc(-c2ccc(C(=O)Nc3ccc4c(c3)OCC(CN3CCCC3)=C4)cn2)cc1` [Example 141, 6-(4-Methoxyphenyl)-N-[3-(1-pyrrolidinylmethyl)-2H-chromen-7-yl]nicotinamide] as the compound, how does the melting point read?
A: 243 to 245 °C

Q: For `CCOC(=O)c1ccc(-c2ccc(C(=O)Nc3ccc4c(c3)CCC(CN(C)C)C4)cc2)cc1` (stereo not drawn) [Example 35, Ethyl 4′-[[[6-[(N,N-dimethylamino)methyl]-5,6,7,8-tetrahydro-2-naphthalenyl]amino]carbonyl][1,1′-biphenyl]-4-carboxylate], which melting point is on record?
A: 156 to 158 °C

Q: Which melting point does the source give for `CN(C)CC1=Cc2ccc(NC(=O)c3ccc(-c4ccc(Cl)cc4)nc3)cc2CC1` [Example 164, 6-(4-Chlorophenyl)-N-[6-[(dimethylamino)methyl]-7,8-dihydro-2-naphthalenyl]nicotinamide] here?
A: 248 to 249 °C

Q: Which melting point does the source give for `O=C(Nc1ccc2c(c1)CCC(CN1CCCC1)C2)c1ccc(-c2ccc(F)cc2)cc1` (stereo not drawn) [Example 97, 4′-Fluoro-N-[6-(1-pyrrolidinylmethyl)-5,6,7,8-tetrahydro-2-naphthalenyl][1,1′-biphenyl]-4-carboxamide] here?
A: 185 to 189 °C

Q: Which melting point does the source give for `CN(C)CC1CCc2cc(NC(=O)c3ccc(NC(=O)Nc4ccccc4)cc3)ccc2C1` (stereo not drawn) [Example 8, (4-Anilinocarbonyl)amino-N-[2-(N,N-dimethylamino)methyl-6-tetralinyl]benzamide] here?
A: 216 to 217 °C (dec.)

Q: With `O=C(NCCN1CCCCC1)c1ccc(NC(=O)c2ccc(-c3ccccc3)cc2)cc1` [compound 22, N-[4-[[2-(Piperidinoethyl)amino]carbonyl]phenyl] 4-biphenylylcarboxamide] as the compound, how does the melting point read?
A: 247 to 252 °C (dec.)

Q: With `O=C(Nc1ccc2c(c1)CCC(CN1CCCC1)=C2)c1ccc(-c2ccc(Cl)cc2)nc1` [Example 162, 6-(4-Chlorophenyl)-N-[6-(1-pyrrolidinylmethyl)-7,8-dihydro-2-naphthalenyl]nicotinamide] as the compound, how does the melting point read?
A: 252 to 253 °C

Q: For `CN(C)CC1=Cc2ncc(NC(=O)c3ccc(-c4ccc(Cl)cc4)cc3)cc2CC1` [Example 134, 4′-Chloro-N-[7-[(dimethylamino)methyl]-5,6-dihydro-3-quinolinyl][1,1′-biphenyl]-4-carboxamide], which melting point is on record?
A: 220 to 222 °C

Q: Which melting point does the source give for `Cc1cc(C(=O)Nc2ccc3c(c2)CCC(CN(C)C)C3)ccc1-c1ccc(Cl)cc1` (stereo not drawn) [Example 28, 4′-Chloro-N-[6-[(N,N-dimethylamino)methyl]-5,6,7,8-tetrahydro-2-naphthalenyl]-2-methyl[1,1′-biphenyl]-4-carboxamide] here?
A: 193 to 195 °C

Q: For `O=C(Nc1ccc2c(c1)CCC(CN1CCCC1)=C2)N1CCN(c2ccc(F)cc2)CC1` [Example 100, 4-(4-Fluorophenyl)-N-[6-(1-pyrrolidinylmethyl)-7,8-dihydro-2-naphthalenyl]-1-piperazinecarboxamide], which melting point is on record?
A: 179 to 181 °C

Q: With `CN(C)CCC1=Cc2ccc(NC(=O)c3ccc(-c4ccccc4)cc3)cc2CC1` [Example 208, N-[6-[2-(Dimethylamino)ethyl]-7,8-dihydro-2-naphthalenyl][1,1′-biphenyl]-4-carboxamide] as the compound, how does the melting point read?
A: 148 to 150 °C

Q: For `CN(C)CC1CCc2cc(NC(=O)c3ccc4c(c3)S(=O)(=O)c3ccccc3C4=O)ccc2C1` (stereo not drawn) [Example 7, N-[2-(N,N-Dimethylamino)methyl-6-tetralinyl]-9,10,10-trioxo-9,10-dihydro-101^6-thioxanthene-3-carboxamide], which melting point is on record?
A: 222 to 223 °C (dec.)

Q: With `CN(C)CC1CCc2cc(NC(=O)c3ccc(-c4ccc(N)cc4)cc3)ccc2C1` (stereo not drawn) [Example 33, 4′-Amino-N-[6-[(N,N-dimethylamino)methyl]-5,6,7,8-tetrahydro-2-naphthalenyl][1,1′-biphenyl]-4-carboxamide] as the compound, how does the melting point read?
A: 148 to 150 °C

Q: With `O=C(Nc1ccc2c(c1)CCC(CN1CCCC1)=C2)c1ccc(-c2ccc(F)cc2F)cc1` [Example 103, 2′,4′-Difluoro-N-[6-(1-pyrrolidinylmethyl)-7,8-dihydro-2-naphthalenyl][1,1′-biphenyl]-4-carboxamide] as the compound, how does the melting point read?
A: 165 to 167 °C

Q: Which melting point does the source give for `CCc1ccc(-c2ccc(C(=O)Nc3ccc4c(c3)CCC(CN(C)C)C4)cc2)cc1` (stereo not drawn) [Example 11, (4′-Ethylbiphenyl-4-yl)-N-[2-(N,N-dimethylamino)methyl-6-tetralinyl]carboxamide] here?
A: 137 to 138 °C

Q: For `CN(C)CC1=Cc2ccc(NC(=O)c3ccc(-c4ccc(F)cc4)cc3)cc2CC1` [Example 42, 4′-Fluoro-N-[6-[(N,N-dimethylamino)methyl]-7,8-dihydro-2-naphthalenyl][1,1′-biphenyl]-4-carboxamide], which melting point is on record?
A: 190 to 193 °C

Q: Which melting point does the source give for `CN(C)CC1=Cc2ccc(NC(=O)c3ccc(-c4ccccc4)cc3)cc2C1` (hydrate or solvate) [Example 244, N-[2-[(Dimethylamino)methyl]-1H-inden-6-yl][1,1′-biphenyl]-4-carboxamide] here?
A: 187 to 189 °C

Q: For `CN(C)CC1=Cc2ccc(NC(=O)c3ccc(-c4ccccc4Cl)cc3)cc2CC1` [Example 50, 2′-Chloro-N-[6-[(dimethylamino)methyl]-7,8-dihydro-2-naphthalenyl][1,1′-biphenyl]-4-carboxamide], which melting point is on record?
A: 145 to 147 °C

Q: For `Cc1cc(C(=O)Nc2ccc3c(c2)CCC(CN(C)C)C3)ccc1Br` (stereo not drawn) [Example 25, 4-Bromo-N-[6[(N,N-dimethylamino)methyl]-5,6,7,8-tetrahydro-2-naphthalenyl]-3-methylbenzamide], which melting point is on record?
A: 154 to 155 °C

Q: Which melting point does the source give for `O=C(Nc1ccc2c(c1)CCC(CN1CCCCC1)C2)C1CC(=O)N(c2ccccc2)C1` (stereo not drawn) [Example 56, 5-Oxo-1-phenyl-N-[6-(1-piperidinylmethyl)-5,6,7,8-tetrahydro-2-naphthalenyl]-3-pyrrolidinecarboxamide] here?
A: 162 to 164 °C

Q: For `CN(C)CC1COc2cc(NC(=O)c3ccc(-c4ccc(F)cc4F)cc3)ccc2O1` (stereo not drawn) [Example 107, 2′,4′-Difluoro-N-[2-[(dimethylamino)methyl]-2,3-dihydro-1,4-benzodioxin-6-yl][1,1′-biphenyl]-4-carboxamide], which melting point is on record?
A: 209 to 210 °C

Q: For `Cl.O=C(Nc1ccc(C(O)C2CCCNC2)cc1)c1ccc(-c2ccc(Cl)cc2)cc1` (stereo not drawn), which melting point is on record?
A: 195 °C (dec.)

Q: Which melting point does the source give for `O=C(Nc1ccc2c(c1)CCC(CN1CCCC1)C2)c1ccc(-c2ccccc2)cc1` (stereo not drawn) [Example 96, N-[6-(1-Pyrrolidinylmethyl)-5,6,7,8-tetrahydro-2-naphthalenyl][1,1′-biphenyl]-4-carboxamide] here?
A: 144 to 146 °C

Q: With `CN(C)CC1CCc2cc(NC(=O)c3ccc(-c4ccc5c(c4)OCO5)cc3)ccc2C1` (stereo not drawn) [Example 14] as the compound, how does the melting point read?
A: 174 to 176 °C

Q: With `CN(C)CC1CCc2cc(NC(=O)c3ccc(-c4ccc(C(F)(F)F)cc4)cc3)ccc2C1` (stereo not drawn) [Example 29, N-[6-[(N,N-Dimethylamino)methyl]-5,6,7,8-tetrahydro-2-naphthalenyl]-4′-(trifluoromethyl)[1,1-biphenyl]-4-carboxamide] as the compound, how does the melting point read?
A: 205 to 206 °C

Q: For `O=C(Nc1ccc2c(c1)CCC(CCN1CCCC1)=C2)c1ccc(-c2ccccc2)cc1` [Example 204, N-[6-[2-(1-Pyrrolidinyl)ethyl]-7,8-dihydro-2-naphthalenyl][1,1′-biphenyl]-4-carboxamide], which melting point is on record?
A: 184 to 186 °C

Q: For `CN(C)CC1CCc2cc(NC(=O)c3ccc(Oc4ccccc4)cc3)ccc2C1` (stereo not drawn) [Example 9, N-[2-(N,N-Dimethylamino)methyl-6-tetralinyl]-4-phenoxy benzamide], which melting point is on record?
A: 137 to 139 °C

Q: For `CN(C)CC1CCc2cc(NC(=O)c3ccc(-c4ccc(-c5ccccc5)cc4)cc3)ccc2C1.Cl` (stereo not drawn), which melting point is on record?
A: 220 °C (dec.)

Q: With `Cl.O=C(Nc1ccc(C(=O)C2CCCNC2)cc1)c1ccc(-c2ccc(Cl)cc2)cc1` (stereo not drawn) as the compound, how does the melting point read?
A: 222 to 225 °C (dec.)

Q: For `CN(C)CC1CCc2cc(NC(=O)c3ccc(-c4ccc([O-])cc4)cc3)ccc2C1.[Na+]` (stereo not drawn) [Example 19, Sodium salt of N-[6-[(N,N-dimethylamino)methyl]-5,6,7,8-tetrahydro-2-naphthalenyl]-4′-oxy[1,1′-biphenyl]-4-carboxamide], which melting point is on record?
A: 246 to 248 °C

Q: For `CN(C)CC1=Cc2ccc(C(=O)Nc3ccc(Br)cc3)cc2CC1` [Example 101, N-(4-Bromophenyl)-6-[(dimethylamino)methyl]-7,8-dihydro-2-naphthalenecarboxamide], which melting point is on record?
A: 175 to 179 °C

Q: Which melting point does the source give for `CN(C)CC1CCc2cc(NC(=O)c3ccc(-c4ccccc4)cc3)ccc2C1` (stereo not drawn) [compound 24, N-[2-(N,N-Dimethylamino)methyl-6-tetralinyl]-4-biphenylylcarboxamide] here?
A: 164 to 166 °C

Q: For `CN(C)CCNC(=O)Cc1ccc(NC(=O)CCCc2c[nH]c3ccccc23)cc1` [Example 189, N-[4-[2-[[2-(Dimethylamino)ethyl]amino]-2-oxoethyl]phenyl]-4-(1H-indol-3-yl)butanamide], which melting point is on record?
A: 132 to 133 °C

Q: Which melting point does the source give for `COc1ccc(-c2ccc(C(=O)Nc3ccc4c(c3)CCC(CN3CCCC3)=C4C)cn2)cc1` [Example 116, 6-(4-Methoxyphenyl)-N-[5-methyl-6-(1-pyrrolidinylmethyl)-7,8-dihydro-2-naphthalenyl]nicotinamide] here?
A: 165 to 167 °C

Q: With `COc1ccc(-c2ccc(C(=O)Nc3ccc4c(c3)CCC(CN3CCCC3)=C4)cc2)cc1` [Example 148, 4′-Methoxy-N-[6-(1-pyrrolidinylmethyl)-7,8-dihydro-2-naphthalenyl][1,1′-biphenyl]-4-carboxamide] as the compound, how does the melting point read?
A: 187 to 188 °C

Q: For `CN(C)CC1=Cc2ccc(NC(=O)c3ccc(-c4ccc(F)cc4)nc3)cc2CC1` [Example 151], which melting point is on record?
A: 216 to 219 °C

Q: With `COc1ccc(-c2ccc(C(=O)Nc3ccc(CC(=O)NCCN(C)C)cc3)cc2)cc1` [Example 193, N-[4-[2-[[2-(Dimethylamino)ethyl]amino]-2-oxoethyl]phenyl]-4′-methoxy[1,1′-biphenyl]-4-carboxamide] as the compound, how does the melting point read?
A: 196 to 198 °C (dec.)

Q: With `N#CC1=C(CN2CCCC2)CCc2cc(NC(=O)c3ccc(-c4ccccc4)cc3)ccc21` [Example 118, N-[5-Cyano-6-(1-pyrrolidinylmethyl)-7,8-dihydro-2-naphthalenyl][1,1′-biphenyl]-4-carboxamide] as the compound, how does the melting point read?
A: 168 to 170 °C

Q: For `CN(C)CC1CCc2cc(NC(=O)c3ccc(-c4ccc(C#N)cc4)cc3)ccc2C1` (stereo not drawn) [Example 207, 4′-Cyano-N-[6-[(dimethylamino)methyl]-5,6,7,8-tetrahydro-2-naphthalenyl][1,1′-biphenyl]-4-carboxamide], which melting point is on record?
A: 183 to 185 °C
